Experimental data reported in US20220339134A1, “VERY-LONG-CHAIN POLYUNSATURATED FATTY ACIDS, ELOVANOID HYDROXYLATED DERIVATIVES, AND METHODS OF USE” (Board of Supervisors of Louisiana State University and …, priority 2019, published 2022).

Tests used:
[1] = system: RPE single-cells; assay: UOS-induced transcriptome changes in RPE single-cells; assay type: cell-based
Text: Dots in box plots represent expression of the gene for a single RPEC (total of 96 per sample). P<0.001 (***), P<0.01 (**), One-way Anova, with Post-Hoc Tukey HSD test for multiple comparisons.

[2] = system: human RPE cells; assay: Oxidative-stress and Erastin induced cell death in human RPE cells; assay type: cell-based
[3] = system: RPE and PRC; assay: Subretinal injection of OAβ in WT mice +/- ELVs (RPE flat mount, OCT, qPCR, Western blot); assay type: in vivo; conditions: for OAβ-activated senescence program (p16INK4a, MMP1, p53, p21, p27, Il-6, SASP secretome) followed by RPE and PRC demise: summary of mouse and human RPE data
Text: (A) In vivo experimental design: 6-month-old C57BL/6J WT mice were divided into 7 groups (n=12/group): non-injected, PBS, OAβ only, OAβ+ELV-N-32, OAβ+ELV-N-34, ELV-N-32 only and ELV-N-34 only. On day 3, mRNA were isolated for Real-Time PCR. On day 7, mice were subjected to OCT and then eyes enucleated and processed for whole mount RPE staining and Western blots. (B) Whole flat mount of RPE with tight junction marker, Zonula occludens-1 (ZO-1) antibody. OAβ disrupted RPE morphology. (C) OAβ effects on retina and RPE by OCT. (D) Thickness of PRC layer was thinner in OAβ injected group. (E) RPE gene expression after Oaβ (1-42) injection and treatment with ELVs. (E-G) Gene expression in the same functional group were plotted. Senescence- and AMD-related genes (E), and collagenases, gelatinase, stromelysins and others matrix metalloproteinases (MMP) (F) and autophagy (G). (H) p16INK4a, a key marker for senescence, western blots of RPE. (I) Retina apoptosis gene expression after OAβ (1-42) injection and treatment with ELVs. (*P<0.05, student t-test).
ELVs restore RPE morphology and reduce gene expression after subretinal injection of OAβ in WT mice. (A) Mice were divided into 7 groups: non-injected, PBS, OAβ only, OAβ+ELV-N-32, OAβ+ELV-N-34, ELV-N-32 only and ELV-N-34 only. On day 3, mRNA were isolated for RT-PCR. On day 7, mice were subjected to OCT and then eyes were enucleated and processed to whole mount RPE staining and Western blot. (B) Whole flat mount of RPE. OAβ disrupted RPE morphology. However, RPE were less damage in the ELVs treatment group as well as PBS, ELVs alone did non induce changes. (C) Evaluation the OAβ effects on retina and RPE by OCT. (D) The thickness of PRC was thin in the OAβ injected group. OAβ cause the cell death of PRC, as the thinner in OCT measurement. (E) RPE gene expression after OAβ (1-42) injection and treatment with ELVs. 3 days after injection, the RNAs from RPE were isolated, reverse transcribed into cDNA and subjected to RT-PCR with different primers. Genes in the same functional group were plotted in the same chart, including senescence- and AMD-related genes (E), and collagenases, gelatinase, stromelysins and others matrix metalloproteinases (MMP) (F) and autophagy (G). (H) p16INK4a western blots of RPE/Choroid. […] (I) Retina gene expression after OAβ (1-42) injection and treatment with ELVs. OAβ activates apoptosis genes in the retina. […] (*P<0.05, using student t-test comparison).
All animal experiments were performed according to ARVO Statement for the Use of Animals in Ophthalmic and Vision Research, and the protocol was approved by LSU Health New Orleans' Institutional Animal Care and Use Committee (IACUC). 6-month-old 5×FAD mice (stock number: 34848-JAX, The Jackson Laboratory, Bar Harbor, Me., USA), co-overexpress FAD mutant forms of human amyloid precursor protein (the Swedish mutation: K670N, M671L; the Florida mutation: I716V; and the London mutation: V7171) and presenilin 1 (PS1, encoded by Psen1: M146L, L286V) transgenes under transcriptional control of the neuron-specific mouse Thy1 promoter. 5×FAD mice were hemizygotes with respect to the transgenes and non-transgenic WT littermates. Genotyping was performed by PCR of tail DNA. All analyses were carried out blind with respect to the mice genotype. For the subretinal injection, 6-month-old C57BL/6J mice were anesthetized by an intraperitoneal injection of ketamine/xylazine, pupils dilated with 1.0% tropicamide (Akorn, Ill., USA); and 0.5% Proparacaine Hydrochloride (Akorn) was applied for topical anesthesia. Eyes were punctured with a 30-gauge needle between the corneoscleral junction and the ora serrata into the vitreous cavity without disturbing the lens. Compounds were delivered to the subretinal region using a 33-gauge blunt needle attached to a 5p.1 Hamilton syringe (Hamilton Company, Reno, Nev., USA) under a dissecting microscope. Non-injected mice were used as negative control while the PBS injected mice were used for sham. […]

[4] = system: primary human RPE cells; assay: Primary human RPE cells treated with 10 μM OAβ +/- ELVs (SA-β-Gal staining, qPCR); assay type: cell-based; conditions: 3 days qPCR, 7 days staining
Protocol: (A) In vitro experimental design: Primary human RPE cells were treated with 10 μM OAβ+/−ELVs. After 3 days, RNA was isolated and qPCR analyzed. After 7 days, cells were subjected to β-Galactosidase staining. (B) Live cell images under bright field microscopy after 7 days. (C) β-Gal staining+/−ELVs. Quantitation of % for the β-Gal positive cells. ELVs decreased positive senescent cells. (D) Gene transcription of senescence, AMD-related and autophagy genes after OAβ (1-42) exposure+/−ELVs. (*P <0.05, student t-test).
OAβ toxicity is counteracted by ELVs in primary hRPE. (A) Primary hRPE cells were treated with 10 μM OAβ with or without adding ELVs. After 3 days, the total RNA was isolated and q-PCR analyzed. After 7 days, cells were subjected to β-Galactosidase staining. (B) Live cell images of primary hRPE under bright field microscope imaging after 7 days. (C) β-Galactosidase staining of primary hRPE, +/−ELVs. Quantitation of % for the β-Gal positive cells. ELVs decreased positive senescent cells. […]
Cells were visualized using SA-β-Gal staining kit (Cat 9860, Cell Signaling Technology, MA, USA). […] Pictures were taken under brightfield microscope (Nikon Eclipse TS100) 200× magnification after the development of blue color, and cells counted in 10 different random fields per well. […]

[5] = methyl ester or sodium salt; administered 1 hour following 2 hours of ischemia; cited from earlier work
[6] = system: hypothalamic neurons; assay: Microelectrode array (MEA) recording of organotypic hypothalamic slices; assay type: cell-based, Leprdb (db/db diabetic) mice; conditions: 500 nM; db/db male and female mice
Protocol: We determined whether ex vivo organotypic culture of hypothalamic slices (200 μm in thickness) obtained from brains of C57BL/6J (WT) mice and age matched Leprdb (db/db diabetic) mice were electrically active and capable of firing trains of action potentials using Maestro microelectrode arrays (MEA) performed with MaestroPro MEA system from Axion Biosystems, GA.
MEA measurements were carried out using a 48-well Microelectrode array (MEA) plate (M768-tMEA-48W) from Axion Biosystems, GA. Each well of the MEA plate, contained a 4×4 grid of […] circular nanoporous PEDOT electrodes embedded in the cell culture substrate, with a pole-to-pole electrode spacing of […]. In preparation for seeding hypothalamic slices, the wells were treated with 0.1% polyethylenimine (PEI) in sodium borate buffer, pH 8.4. Wells were then pre-coated in laminin (6 μg/mL) and the hypothalamic slices (200 μm in thickness) were plated on the electrode grid. […]
Extracellular recordings of spontaneous action potentials were performed in culture medium at 37° C. using the standard neural setting of the MaestroPro MEA system and AxIS software version 1.5.1.12. […] Recorded spike number per electrode were averaged after disregarding noisy electrodes from analysis. […]
Using the MEA system, population level electrical activity was recorded from different hypothalamic neurons. […]

[7] = co-injected with OAβ subretinally, then topical ELV, day 7

CC/C=C\C[C@H](O)\C=C/C=C/C=C/[C@H](O)C/C=C\C/C=C\CCC(=O)O [NPD1, 10R,17S-dihydroxy-docosa-4Z,7Z,11E,13E,15Z,19Z-hexaenoic acid, reference compound]
UOS-induced up-regulation of pro-inflammatory transcriptome and down-regulation of pro-homeostatic pathways [1]: suppress these changes | oxidative-stress and Erastin induced cell deaths [2]: counteracted

CC/C=C\C[C@H](O)\C=C/C=C/C=C/[C@H](O)C/C=C\C/C=C\CCCCCCCCCCCCC(=O)O [ELV-N-32]
PRC degeneration / ONL after ELV injected alone ([3]; ELV alone, no OAβ, subretinal): did not yield PRC degeneration | PRC protection (PRC layer, OCT) [3, 7]: protection of PRC | RPE morphology (ZO-1 whole flat mount) [3, 7]: restoration of RPE morphology | p16INK4a protein (western blot of RPE/Choroid) ([3]; elevated by OAβ injection, day 7): down regulated | OAβ-activated senescence program (p16INK4a, MMP1, p53, p21, p27, Il-6, SASP secretome) followed by RPE and PRC demise [3]: blunt these events and elicit protection to both cells | OAβ-activated senescence program (p16INK4a, MMP1, p53, p21, p27, Il-6, SASP secretome) followed by RPE and PRC demise ([3]; listed as ELV 32): downregulatory mediators of OAβ-evoked senescence | OAβ-activated senescence program (p16INK4a, MMP1, p53, p21, p27, Il-6, SASP secretome) followed by RPE and PRC demise ([3]; listed as elovanoid 32): blunt these events and elicits protection | UOS-induced up-regulation of pro-inflammatory transcriptome and down-regulation of pro-homeostatic pathways [1]: suppress these changes | OAβ effects: RPE cell morphology, SASP (SA-β-Gal), senescence, AMD, MMP and autophagy gene expression [4]: reverted these effects | oxidative-stress and Erastin induced cell deaths [2]: counteracted | cell survival [5]: promoted cell survival | infarct volumes [5]: reduced infarct volumes | neurovascular unit disruption [5]: diminished neurovascular unit disruption

OAβ: oligomerized Aβ (1-42) peptide, used as cytotoxic stressor [reference compound]
PRC layer thickness (OCT) ([3]; OAβ-injected retina, non-injected retina 105 μm): 35 μm

CC/C=C\C[C@H](O)\C=C/C=C/C=C/[C@H](O)C/C=C\C/C=C\CCCCCCCCCCCCCCC(=O)[O-].[Na+] [ELV-34-6 Na, sodium (16Z,19Z,22R,23E,25E,27Z,29S,31Z)-22,29-dihydroxytetratriaconta-16,19,23,25,27,31-hexaenoate]
spiking activity of hypothalamic slices (MEA) [6]: synchronous spiking is restored
